According to BindingDB's records for doi:10.1021/jm020562o (University of Vermont, 2003):
pKi: −log10 of the molar value.

Experiment: Binding affinity was determined against Opioid receptor delta 1 from guinea pig brain membranes

For `COCC[C@H]1CC2CN3CCc4c([nH]c5ccccc45)[C@](C(=O)OC)(C2)C13` [18-methoxycoronaridine], the pKi was 5.46.
